{"source": "patent US7118895B2", "about": "“Process for producing aglycon by using diglycosidase and flavor-improved food containing the aglycon and converting agent to be used in the process” (Amano Enzyme Inc., priority 2000, dated 2006)", "system": "Crude diglycosidase", "experiment": "Examination of substrate concentration in the conversion into isoflavone aglycons by diglycosidase using soybean materials;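 note: percent of the isoflavone family total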", "assay_type": "biochemical, Penicillium multicolor IAM7153", "how_it_was_run": "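Reaction at 55° C, shaken, pH 4.0 (20 mM acetate), using crude diglycosidase from a 1.88 AU/mL enzyme solution on soy flour, soymilk, defatted soybean or soy protein concentrate at 2, 5, 10, 20 or 30% (w/v). Isoflavone aglycons quantified by HPLC of ethanol extracts at 0, 1, 3, 6 h.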", "data": [{"smiles": "COc1cc2c(=O)c(-c3ccc(O)cc3)coc2cc1O[C@@H]1O[C@H](CO)[C@@H](O)[C@H](O)[C@H]1O", "note": "[glycitin]", "values": [{"measurement": "Decomposition efficiency: ratio of each glycoside/aglycon within its isoflavone family", "setting": "defatted soybean, substrate concentration 10%, heat treatment of enzyme no, reaction time 1 h", "value": "not detected"}, {"measurement": "Decomposition efficiency: ratio of each glycoside/aglycon within its isoflavone family", "setting": "defatted soybean, substrate concentration 10%, heat treatment of enzyme no, reaction time 3 h", "value": "not detected"}, {"measurement": "Decomposition efficiency: ratio of each glycoside/aglycon within its isoflavone family", "setting": "defatted soybean, substrate concentration 10%, heat treatment of enzyme no, reaction time 6 h", "value": "not detected"}, {"measurement": "Decomposition efficiency: ratio of each glycoside/aglycon within its isoflavone family", "setting": "defatted soybean, substrate concentration 10%, heat treatment of enzyme yes, reaction time 6 h", "value": "not detected"}, {"measurement": "Decomposition efficiency: ratio of each glycoside/aglycon within its isoflavone family", "setting": "roasted soy flour, substrate concentration 2%, heat treatment of enzyme no, reaction time 0 h", "value": 50.2, "unit": "%"}, {"measurement": "Decomposition efficiency: ratio of each glycoside/aglycon within its isoflavone family", "setting": "roasted soy flour, substrate concentration 2%, heat treatment of enzyme no, reaction time 1 h", "value": "not detected"}, {"measurement": "Decomposition efficiency: ratio of each glycoside/aglycon within its isoflavone family", "setting": "roasted soy flour, substrate concentration 2%, heat treatment of enzyme no, reaction time 3 h", "value": "not detected"}, {"measurement": "Decomposition efficiency: ratio of each glycoside/aglycon within its isoflavone family", "setting": "roasted soy flour, substrate concentration 2%, heat treatment of enzyme no, reaction time 6 h", "value": "not detected"}, {"measurement": "Decomposition efficiency: ratio of each glycoside/aglycon within its isoflavone family", "setting": "roasted soy flour, substrate concentration 2%, heat treatment of enzyme yes, reaction time 6 h", "value": 53.4, "unit": "%"}, {"measurement": "Decomposition efficiency: ratio of each glycoside/aglycon within its isoflavone family", "setting": "roasted soy flour, substrate concentration 5%, heat treatment of enzyme no, reaction time 0 h", "value": 54.8, "unit": "%"}, {"measurement": "Decomposition efficiency: ratio of each glycoside/aglycon within its isoflavone family", "setting": "roasted soy flour, substrate concentration 5%, heat treatment of enzyme no, reaction time 1 h", "value": "not detected"}, {"measurement": "Decomposition efficiency: ratio of each glycoside/aglycon within its isoflavone family", "setting": "roasted soy flour, substrate concentration 5%, heat treatment of enzyme no, reaction time 3 h", "value": "not detected"}, {"measurement": "Decomposition efficiency: ratio of each glycoside/aglycon within its isoflavone family", "setting": "roasted soy flour, substrate concentration 5%, heat treatment of enzyme no, reaction time 6 h", "value": "not detected"}, {"measurement": "Decomposition efficiency: ratio of each glycoside/aglycon within its isoflavone family", "setting": "roasted soy flour, substrate concentration 5%, heat treatment of enzyme yes, reaction time 6 h", "value": 54.8, "unit": "%"}, {"measurement": "Decomposition efficiency: ratio of each glycoside/aglycon within its isoflavone family", "setting": "roasted soy flour, substrate concentration 10%, heat treatment of enzyme no, reaction time 0 h", "value": 70.3, "unit": "%"}, {"measurement": "Decomposition efficiency: ratio of each glycoside/aglycon within its isoflavone family", "setting": "roasted soy flour, substrate concentration 10%, heat treatment of enzyme no, reaction time 1 h", "value": "not detected"}, {"measurement": "Decomposition efficiency: ratio of each glycoside/aglycon within its isoflavone family", "setting": "roasted soy flour, substrate concentration 10%, heat treatment of enzyme no, reaction time 3 h", "value": "not detected"}, {"measurement": "Decomposition efficiency: ratio of each glycoside/aglycon within its isoflavone family", "setting": "roasted soy flour, substrate concentration 10%, heat treatment of enzyme no, reaction time 6 h", "value": "not detected"}, {"measurement": "Decomposition efficiency: ratio of each glycoside/aglycon within its isoflavone family", "setting": "roasted soy flour, substrate concentration 10%, heat treatment of enzyme yes, reaction time 6 h", "value": 55.0, "unit": "%"}, {"measurement": "Decomposition efficiency: ratio of each glycoside/aglycon within its isoflavone family", "setting": "roasted soy flour, substrate concentration 20%, heat treatment of enzyme no, reaction time 0 h", "value": 59.6, "unit": "%"}, {"measurement": "Decomposition efficiency: ratio of each glycoside/aglycon within its isoflavone family", "setting": "roasted soy flour, substrate concentration 20%, heat treatment of enzyme no, reaction time 1 h", "value": "not detected"}, {"measurement": "Decomposition efficiency: ratio of each glycoside/aglycon within its isoflavone family", "setting": "roasted soy flour, substrate concentration 20%, heat treatment of enzyme no, reaction time 3 h", "value": "not detected"}, {"measurement": "Decomposition efficiency: ratio of each glycoside/aglycon within its isoflavone family", "setting": "roasted soy flour, substrate concentration 20%, heat treatment of enzyme no, reaction time 6 h", "value": "not detected"}, {"measurement": "Decomposition efficiency: ratio of each glycoside/aglycon within its isoflavone family", "setting": "roasted soy flour, substrate concentration 20%, heat treatment of enzyme yes, reaction time 6 h", "value": 56.0, "unit": "%"}, {"measurement": "Decomposition efficiency: ratio of each glycoside/aglycon within its isoflavone family", "setting": "roasted soy flour, substrate concentration 30%, heat treatment of enzyme no, reaction time 0 h", "value": 55.9, "unit": "%"}, {"measurement": "Decomposition efficiency: ratio of each glycoside/aglycon within its isoflavone family", "setting": "roasted soy flour, substrate concentration 30%, heat treatment of enzyme no, reaction time 1 h", "value": "not detected"}, {"measurement": "Decomposition efficiency: ratio of each glycoside/aglycon within its isoflavone family", "setting": "roasted soy flour, substrate concentration 30%, heat treatment of enzyme no, reaction time 3 h", "value": "not detected"}, {"measurement": "Decomposition efficiency: ratio of each glycoside/aglycon within its isoflavone family", "setting": "roasted soy flour, substrate concentration 30%, heat treatment of enzyme no, reaction time 6 h", "value": "not detected"}, {"measurement": "Decomposition efficiency: ratio of each glycoside/aglycon within its isoflavone family", "setting": "roasted soy flour, substrate concentration 30%, heat treatment of enzyme yes, reaction time 6 h", "value": 56.9, "unit": "%"}, {"measurement": "Decomposition efficiency: ratio of each glycoside/aglycon within its isoflavone family", "setting": "soymilk, substrate concentration 2%, heat treatment of enzyme no, reaction time 0 h", "value": 71.8, "unit": "%"}, {"measurement": "Decomposition efficiency: ratio of each glycoside/aglycon within its isoflavone family", "setting": "soymilk, substrate concentration 2%, heat treatment of enzyme no, reaction time 1 h", "value": "not detected"}, {"measurement": "Decomposition efficiency: ratio of each glycoside/aglycon within its isoflavone family", "setting": "soymilk, substrate concentration 2%, heat treatment of enzyme no, reaction time 3 h", "value": "not detected"}, {"measurement": "Decomposition efficiency: ratio of each glycoside/aglycon within its isoflavone family", "setting": "soymilk, substrate concentration 2%, heat treatment of enzyme no, reaction time 6 h", "value": "not detected"}, {"measurement": "Decomposition efficiency: ratio of each glycoside/aglycon within its isoflavone family", "setting": "soymilk, substrate concentration 2%, heat treatment of enzyme yes, reaction time 6 h", "value": 51.8, "unit": "%"}, {"measurement": "Decomposition efficiency: ratio of each glycoside/aglycon within its isoflavone family", "setting": "soymilk, substrate concentration 5%, heat treatment of enzyme no, reaction time 0 h", "value": 49.4, "unit": "%"}, {"measurement": "Decomposition efficiency: ratio of each glycoside/aglycon within its isoflavone family", "setting": "soymilk, substrate concentration 5%, heat treatment of enzyme no, reaction time 1 h", "value": "not detected"}, {"measurement": "Decomposition efficiency: ratio of each glycoside/aglycon within its isoflavone family", "setting": "soymilk, substrate concentration 5%, heat treatment of enzyme no, reaction time 3 h", "value": "not detected"}, {"measurement": "Decomposition efficiency: ratio of each glycoside/aglycon within its isoflavone family", "setting": "soymilk, substrate concentration 5%, heat treatment of enzyme no, reaction time 6 h", "value": "not detected"}, {"measurement": "Decomposition efficiency: ratio of each glycoside/aglycon within its isoflavone family", "setting": "soymilk, substrate concentration 5%, heat treatment of enzyme yes, reaction time 6 h", "value": 56.7, "unit": "%"}, {"measurement": "Decomposition efficiency: ratio of each glycoside/aglycon within its isoflavone family", "setting": "soymilk, substrate concentration 10%, heat treatment of enzyme no, reaction time 0 h", "value": 52.5, "unit": "%"}, {"measurement": "Decomposition efficiency: ratio of each glycoside/aglycon within its isoflavone family", "setting": "soymilk, substrate concentration 10%, heat treatment of enzyme no, reaction time 1 h", "value": "not detected"}, {"measurement": "Decomposition efficiency: ratio of each glycoside/aglycon within its isoflavone family", "setting": "soymilk, substrate concentration 10%, heat treatment of enzyme no, reaction time 3 h", "value": "not detected"}, {"measurement": "Decomposition efficiency: ratio of each glycoside/aglycon within its isoflavone family", "setting": "soymilk, substrate concentration 10%, heat treatment of enzyme no, reaction time 6 h", "value": "not detected"}, {"measurement": "Decomposition efficiency: ratio of each glycoside/aglycon within its isoflavone family", "setting": "soymilk, substrate concentration 10%, heat treatment of enzyme yes, reaction time 6 h", "value": 56.8, "unit": "%"}, {"measurement": "Decomposition efficiency: ratio of each glycoside/aglycon within its isoflavone family", "setting": "soymilk, substrate concentration 20%, heat treatment of enzyme no, reaction time 0 h", "value": 52.4, "unit": "%"}, {"measurement": "Decomposition efficiency: ratio of each glycoside/aglycon within its isoflavone family", "setting": "soymilk, substrate concentration 20%, heat treatment of enzyme no, reaction time 1 h", "value": "not detected"}, {"measurement": "Decomposition efficiency: ratio of each glycoside/aglycon within its isoflavone family", "setting": "soymilk, substrate concentration 20%, heat treatment of enzyme no, reaction time 3 h", "value": "not detected"}, {"measurement": "Decomposition efficiency: ratio of each glycoside/aglycon within its isoflavone family", "setting": "soymilk, substrate concentration 20%, heat treatment of enzyme no, reaction time 6 h", "value": "not detected"}, {"measurement": "Decomposition efficiency: ratio of each glycoside/aglycon within its isoflavone family", "setting": "soymilk, substrate concentration 20%, heat treatment of enzyme yes, reaction time 6 h", "value": 55.5, "unit": "%"}, {"measurement": "Decomposition efficiency: ratio of each glycoside/aglycon within its isoflavone family", "setting": "soymilk, substrate concentration 30%, heat treatment of enzyme no, reaction time 0 h", "value": 50.9, "unit": "%"}, {"measurement": "Decomposition efficiency: ratio of each glycoside/aglycon within its isoflavone family", "setting": "soymilk, substrate concentration 30%, heat treatment of enzyme no, reaction time 1 h", "value": "not detected"}, {"measurement": "Decomposition efficiency: ratio of each glycoside/aglycon within its isoflavone family", "setting": "soymilk, substrate concentration 30%, heat treatment of enzyme no, reaction time 3 h", "value": "not detected"}, {"measurement": "Decomposition efficiency: ratio of each glycoside/aglycon within its isoflavone family", "setting": "soymilk, substrate concentration 30%, heat treatment of enzyme no, reaction time 6 h", "value": "not detected"}, {"measurement": "Decomposition efficiency: ratio of each glycoside/aglycon within its isoflavone family", "setting": "soymilk, substrate concentration 30%, heat treatment of enzyme yes, reaction time 6 h", "value": 55.8, "unit": "%"}]}]}
